{
  "source": "patent US7767642B2",
  "about": "“Therapeutic peptides for the treatment of metastatic cancer” (Arizona Biomedical Research Commission, priority 2005, dated 2010)",
  "key": {"[1]": {"tested_on": "MDA-MB-468 breast cancer cells", "assay": "Transwell collagen gel invasion assay, peptides delivered with Bioporter", "assay_type": "cell-based", "procedure": "FIG. 1. […] A collagen gel matrix was poured onto the bottom of 8 uM pore sized-transwell inserts (modified Boyden's chamber), then inverted into 20% FBS. Cells were incubated with 100 ng/ml of peptide (with Bioporter reagent to allow for cellular uptake), then added to the top of the Transwell. Cells (serum-free) were allowed to invade into the gel, the gel was removed and invading cells enumerated.\n(§1) Peptide treatment and invasion assay: 8 um pore size Transwell inserts (Corning) will be inverted and coated with 90 ul of Type I collagen (rat tail, BD Scientific) gel mixture (2.2% sodium bicarbonate, 10× M199 media), and allowed to solidify for 30 minutes. Wells are then be inverted into DMEM with 20% fetal calf serum and allowed to rehydrate. Peptides are incubated with BioPORTER reagent (Sigma, St. Louis Mo.) for 5 minutes to promote cellular uptake, vortexed, and added to cells in serum-free media (10 ng/ml, 100 ng/ml and […] concentrations will be tested) and placed in the upper chamber of the Transwell. Cells will then be incubated for 2, 4 or 24 hours. Media is removed and gels fixed with 4% paraformaldehyde for 30 minutes and transferred to PBS, pH 7.4. Collagen gels will then either be stained with bizbenzamide for 40 minutes and all cells invaded into a gel enumerated or used in immunofluorescence assays. Invasion of peptide-treated cells are compared to PBS/bioporter treated controls or irrelevant peptide treatment.\nTo investigate the functional significance of MUC1 expression on breast cancer invasion, we have incubated invasive breast cancer cell lines with MUC1-mimetic peptides designed to the β-catenin interacting domain. We then monitored the effects of peptide treatment on invasion through a filter and into a collagen gel.\nWe performed initial experiments with these β-catenin-binding site (M2) peptides in MDA-MB-468 cells. […] We observed less than 15 M2 peptide-treated cells invaded into a collagen matrix in a 4 hour period, compared to approximately 125 cells in PBS controls."}, "[2]": {"tested_on": "MDA-MB-231 breast cancer cells", "assay": "Invasion assay with TAT-conjugated MUC1-mimetic peptides", "assay_type": "cell-based", "settings": "MDA-MB-231, compared to control TAT peptide", "procedure": "FIG. 4. Treatment of MDA-MB-231 cells with MEBTAT leads to a 5-fold decrease in cell invasiveness as compared to control TAT peptide in invasion assays.\nas §1\nWe have designed TAT-conjugated MUC1-mimetic peptides for their ability to inhibit the invasion of MDA-MB-231 and MDA-MB-468 invasive breast cancer cell lines. […]"}, "[3]": {"target": "T1, β-catenin (Homo sapiens, UniProt P35222)", "T1 construct": "endogenous in cells; host or cells: MDA-MB-231 breast cancer cells", "T1 sequence (P35222 1-781)": "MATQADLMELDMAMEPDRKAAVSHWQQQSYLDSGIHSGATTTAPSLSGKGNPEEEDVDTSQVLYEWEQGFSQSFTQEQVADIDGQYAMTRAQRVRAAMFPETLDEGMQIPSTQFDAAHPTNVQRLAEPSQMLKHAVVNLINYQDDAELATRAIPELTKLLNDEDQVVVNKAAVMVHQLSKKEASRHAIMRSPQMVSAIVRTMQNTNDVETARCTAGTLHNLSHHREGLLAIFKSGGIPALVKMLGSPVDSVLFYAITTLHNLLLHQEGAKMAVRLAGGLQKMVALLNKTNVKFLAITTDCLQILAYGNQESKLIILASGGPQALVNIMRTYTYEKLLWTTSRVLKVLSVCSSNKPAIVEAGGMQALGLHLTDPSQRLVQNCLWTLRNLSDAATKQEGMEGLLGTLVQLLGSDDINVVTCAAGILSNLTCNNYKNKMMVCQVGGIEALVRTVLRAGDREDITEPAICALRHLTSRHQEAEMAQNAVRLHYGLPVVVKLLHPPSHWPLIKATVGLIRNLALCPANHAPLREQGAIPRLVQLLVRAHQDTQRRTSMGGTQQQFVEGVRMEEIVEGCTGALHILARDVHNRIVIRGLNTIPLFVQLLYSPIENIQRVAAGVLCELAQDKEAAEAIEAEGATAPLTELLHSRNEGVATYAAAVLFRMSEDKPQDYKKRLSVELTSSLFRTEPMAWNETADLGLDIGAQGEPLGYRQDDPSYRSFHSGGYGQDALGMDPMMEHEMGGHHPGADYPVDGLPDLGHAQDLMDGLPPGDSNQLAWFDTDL", "assay": "β-catenin localization after peptide treatment", "assay_type": "cell-based", "settings": "MDA-MB-231 cells treated with peptide", "procedure": "Immunofluorescence: Cells undergoing invasion through collagen gels are immunofluorescently labeled in situ (while in the collagen gel). For immunofluorescence on collagen gels, gels are permeabilized with 0.5% Triton X-100 in 10 mM Pipes (pH 6.8), 50 mM NaCl, 300 mM sucrose and 3 mM MgCl2 for 5 minutes at room temperature. Gels are blocked with 3% BSA (Sigma), 0.05% Tween 20, in a 1:1 solution of PBS and Enhancing Wash Buffer (Innovex). Primary antibodies are incubated overnight at 4° C., and gels washed for 6 hours in 1:1 PBS: Enhancing Wash Buffer. Secondary antibodies are incubated overnight at 4° C., and washed again for 6 hours at room temperature. Gels are then mounted, coverslipped and analyzed using a Zeiss laser scanning confocal microscope. The following antibodies are used: anti-biotin (streptavidin-Alexa594, 1:500, Molecular Probes), anti-Muc1 (1:100, Santa Cruz), anti-vinculin (V9131, 1:400, Sigma Chemical Company) anti-β-catenin (H-102, 1:100, Santa Cruz Biochemical), anti-fascin (FCN01, 1:50, Neomarkers), and phalloidin-Alexa546 (1:100, Molecular Probes). Secondary antibodies can be either Alexa 488 or 546 from Molecular Probes."}, "[4]": {"tested_on": "MDA-MB-231 cell line", "assay": "Scid xenograft model Trial 1, i.p. treatment", "assay_type": "in vivo", "settings": "for animals with tumor regression / tumor regression in the regressing animal: once daily MWF", "procedure": "Trial 1. The MDA-MB-231 cell line was injected (in matrigel) into the mammary fat pad of 24 mice. These mice were then divided into 3 groups and injected once daily, MWF, for 2 weeks.\nGroup IA was treated (i.p.) with 10 ug/g body weight MEBTAT peptide\nGroup IB was treated (i.p.) with 20 ug/g body weight MEBTAT peptide\nGroup IC was treated (i.p.) with 20 ug/g body weight TAT peptide\nAt the end of 2 weeks, we had 27% tumor regression in 1/7 animals in group IA, 7% tumor regression in 1/7 animals in group IB, and no tumor regression (0/7) in group IC.\nAll tumors were surgically resected 3 days after final drugging, and the mice were monitored for an additional 10 days. […] This correlates to a 25% increase in overall survival time for the animals taking 20 ug/g body weight of MEBTAT compared to TAT."}, "[5]": {"tested_on": "MDA-MB-231 cell line", "assay": "Scid xenograft model Trial II, i.v. treatment", "assay_type": "in vivo", "settings": "20 ug/g body weight i.v.", "procedure": "Trial II: The MDA-MB-231 cell line was injected (in matrigel) into the mammary fat pad of 16 mice. These mice were then divided into 2 groups and injected once daily, MTWThF, for 2 weeks.\nGroup IIA was treated (i.v.) with 20 ug/g body weight MEBTAT peptide\nGroup IIB was treated (i.v.) with 20 ug/g body weight TAT peptide\nAll animals were sacrificed and analyzed for metastases."}, "[6]": {"tested_on": "MDA-MB-231 cells", "assay": "96-well invasion assay of MEBTAT and alanine-scanning mutants", "assay_type": "cell-based", "settings": "96-well format, 1 hour treatment, 18 hours invasion", "procedure": "The amino acids of the MEB sequence [PYEKVSAGNGGSSLS; SEQ ID NO: 1] were replaced, one amino acid at a time, with alanine. (Note that there are only […] mutants, as one of the parental amino acid residues. was already an alanine). Note also that this experiment was done one time, with 4 replicas at each data point.\nA new assay was performed in a 96-well format. While the suppression of invasion is not as robust as that observed in the 24-well format, we still observe a 3-fold suppression of invasion with MEBTAT treatment over TAT or PBS. […] Altering any of the remaining amino acids completely eliminated the effect, indicating a critical role for both the YEKV (EGFR/src binding site) and the SAGNGGSSLS (beta-catenin binding site). Also important is the P (at residue #1) that links MEB to the TAT. The proline could be providing important access of the peptide to MUC1 binding sites.\nMDA-MB-231 cells were treated for 1 hour with MEBTAT (M), TAT (T), PBS (P), or alanine scanning mutants of MEBTAT. Cells were treated with Calcein-AM and allowed to invade across an 8-uM Transwell into a Type I collagen gel for 18 hours. Invasion was analyzed by spectrophotometry."}, "[7]": {"tested_on": "MDA-MB-231 and MDA-MB-468 invasive breast cancer cell lines", "assay": "Invasion assay with TAT-conjugated MUC1-mimetic peptides, cell line not given", "assay_type": "cell-based", "settings": "TAT-conjugated peptide", "procedure": "as §1\nWe have designed TAT-conjugated MUC1-mimetic peptides for their ability to inhibit the invasion of MDA-MB-231 and MDA-MB-468 invasive breast cancer cell lines.\nPeptides were designed to carry the TAT transduction domain for entry into cells. The following peptides were designed, produced and tested: […]"}, "[8]": {"settings": "10 ug/g body weight i.p., end of 2 weeks"}, "[9]": {"settings": "20 ug/g body weight i.p., end of 2 weeks"}},
  "note": "Where “and” joins values, the source holds several entries; their conditions need not be identical. Equal entries are not always repeated. Where no end group is shown, it is not given here. TAT = Protein Transduction Domain of the HIV protein TAT (trans-activating transcriptional activator protein), a cell-penetrating sequence",
  "data": [
    {"substance": "M2: MUC1-β-catenin binding domain mimetic peptide, SEQ ID NO: 7 (SAGNGGSSLSY; listed as Homo sapiens)", "values": [
      {"measurement": "cells invaded into a collagen matrix", "setting": "[1]; 4 hour period, approximately 125 cells in PBS controls", "value": "less than 15 cells"},
      {"measurement": "inhibition of invasion into a collagen matrix", "setting": "[1]; MDA-MB-468, 100 ng/ml peptide with Bioporter, vs PBS controls", "value": "approximately 8 fold"},
      {"measurement": "effect on invasion", "setting": "[1]; MDA-MB-468, compared to PBS treated controls", "value": "inhibits invasion"}
    ]},
    {"substance": "TAT-PYEKVSAGNGGSSLS ({TAT}-PYEKVSAGNGGSSLS; listed as Homo sapiens) [MEBTAT]", "values": [
      {"measurement": "decrease in cell invasiveness / block of invasion", "setting": "[2]", "value": "5 fold and 6 fold"},
      {"measurement": "β-catenin localization", "setting": "[3]", "value": "β-catenin localization at sites of focal adhesion and lamellapodia"},
      {"measurement": "animals with tumor regression", "setting": "[4]; [8]", "value": "1/7"},
      {"measurement": "tumor regression in the regressing animal", "setting": "[4]; [8]", "value": 27, "unit": "%"},
      {"measurement": "increase in overall survival time compared to TAT", "setting": "[4]; 20 ug/g body weight i.p.", "value": 25, "unit": "%"},
      {"measurement": "animals with tumor regression", "setting": "[4]; [9]", "value": "1/7"},
      {"measurement": "tumor regression in the regressing animal", "setting": "[4]; [9]", "value": 7, "unit": "%"},
      {"measurement": "toxicity of the peptide treatment", "setting": "[4]; 10 and 20 ug/g body weight i.p., 2 weeks", "value": "no detectable toxicity"},
      {"measurement": "tumor regrowth after surgical resection", "setting": "[4]; all 3 groups, monitored 10 days after resection", "value": "no statistically significant difference in growth rates"},
      {"measurement": "decrease in tumor volume compared to TAT", "setting": "[4]; all treatment groups, i.p., end of 2 weeks", "value": 20, "unit": "%"},
      {"measurement": "toxicity", "setting": "[5]; 2 weeks", "value": "no detectable toxicity"},
      {"measurement": "tumor volume reduction in regressing animals", "setting": "[5]; end of 2 weeks, individual mice", "value": "7% and 9% and 21%"},
      {"measurement": "animals with tumor regression", "setting": "[5]; once daily MTWThF, end of 2 weeks", "value": "3/8"},
      {"measurement": "visible metastases in diaphragms (animals)", "setting": "[5]; sacrifice at 2 weeks", "value": "4/8"},
      {"measurement": "visible metastases in livers (animals)", "setting": "[5]; sacrifice at 2 weeks", "value": "1/8"},
      {"measurement": "visible metastases in lungs (animals)", "setting": "[5]; sacrifice at 2 weeks", "value": "0/8"},
      {"measurement": "suppression of invasion over TAT or PBS", "setting": "[6]", "value": 3, "unit": "fold"}
    ]},
    {"substance": "TAT-SAGNGGSSLS ({TAT}-SAGNGGSSLS; listed as Homo sapiens) [MBTAT]", "values": [
      {"measurement": "suppression of invasion", "setting": "[7]", "value": 8, "unit": "fold"}
    ]},
    {"substance": "TAT-SSTDRSPYEKVSAGNGGSSLSYTNP ({TAT}-SSTDRSPYEKVSAGNGGSSLSYTNP; listed as Homo sapiens) [MTAT1, used for positive controls, reference compound]", "values": [
      {"measurement": "increase of invasion", "setting": "[7]", "value": 18, "unit": "fold"}
    ]}
  ]
}
